Results published in US10463644B2, “Uses of sesquiterpene lactone compounds and their derivatives in drugs preparation” (ACCENDATECH, priority 2013, dated 2019).
Where two headings read alike, the source gives them in different places.

Tests used:
[1] = test system: IL-1β secreted by synoviocyte; experiment: Content of IL-1β in culture supernatant of synoviocyte of RA model rats given test compound; format: in vivo; conditions: rat RA model, dose 30 mg/kg.2d; normal control 0.16 ± 0.034, NaCl 0.49 ± 0.136
Outline: (§1)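 Test article is given to RA rats at 30 mg/kg.2d, and synoviocytes are isolated and cultured. Secreted TNF-α and PGE2 in the culture medium are measured by a shared protocol, while IL-1β release is measured by a different protocol. Comparison groups are saline (NaCl) and normal control rats.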

[2] = test system: PGE2 secreted by synoviocyte; experiment: Content of PGE2 in culture supernatant of synoviocyte of RA model rats given test compound; format: in vivo; conditions: rat RA model, dose 30 mg/kg.2d; normal control 8.34 ± 1.29, NaCl 32.44 ± 10.32
Outline: as §1

cancer stem cells = experiment: Survival rate of cancer stem cells after test compound is added (flow cytometry, Annexin V-FITC/PI, clinical specimen); format: cell-based, patient; conditions: Homo sapiens, 18 h
Outline: (§2)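 Survival was determined in clinical specimens after an 18 h compound treatment, using Annexin V-FITC/PI apoptosis staining and flow cytometry.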

cancer cells = experiment: Survival rate of cancer cells after test compound is added (flow cytometry, Annexin V-FITC/PI, clinical specimen); format: cell-based, patient; conditions: Homo sapiens, 18 h, read-out: Survival rate (%) All cells (Stem cells and ordinary cells)
Outline: as §2

normal cells = experiment: Survival rate of normal cells after test compound is added (flow cytometry, Annexin V-FITC/PI); format: cell-based; conditions: 18 h
Outline: as §2

[3] = Head and neck squamous cell carcinomas
[4] = read-out: Survival rate (%) All cells (Stem cells and ordinary cells)
[5] = read-out: Survival rate (%) Stem cells

C=C1C(=O)O[C@H]2[C@H]1CC[C@@](C)(OC)C1CC[C@@](C)(O)[C@@H]12 (stereo partly drawn) [Compound 47]
Content of IL-1β in culture supernatant of synoviocyte (x ± s) [1]: 0.34 ± 0.058 ng/mL
Content of PGE2 in culture supernatant of synoviocyte (x ± s) [2]: 27.95 ± 3.67 ng/mL
viability at 10 µM (cancer stem cells; AML): 79%
viability at 20 µM (cancer stem cells; AML): 73%
viability at 10 µM (cancer stem cells; Brain glioma): 85%
viability at 20 µM (cancer stem cells; Brain glioma): 79%
viability at 10 µM (cancer stem cells; Brain tumor): 81%
viability at 20 µM (cancer stem cells; Brain tumor): 75%
viability at 10 µM (cancer stem cells; Breast cancer): 82%
viability at 20 µM (cancer stem cells; Breast cancer): 73%
viability at 10 µM (cancer stem cells; CLL): 82%
viability at 20 µM (cancer stem cells; CLL): 73%
viability at 10 µM (cancer stem cells; CML): 85%
viability at 20 µM (cancer stem cells; CML): 77%
viability at 10 µM (cancer stem cells; Children hepatoblastoma): 85%
viability at 20 µM (cancer stem cells; Children hepatoblastoma): 79%
viability at 10 µM (cancer stem cells; Colon adenocarcinoma): 88%
viability at 20 µM (cancer stem cells; Colon adenocarcinoma): 81%
viability at 10 µM (cancer stem cells; Colorectal cancer): 79%
viability at 20 µM (cancer stem cells; Colorectal cancer): 72%
viability at 10 µM (cancer stem cells; Gastric cancer): 82%
viability at 20 µM (cancer stem cells; Gastric cancer): 76%
viability at 10 µM (cancer stem cells; Gastrointestinal tumor): 78%
viability at 20 µM (cancer stem cells; Gastrointestinal tumor): 74%
viability at 10 µM (cancer stem cells; Glioma): 87%
viability at 20 µM (cancer stem cells; Glioma): 76%
viability at 10 µM (cancer stem cells; [3]): 86%
viability at 20 µM (cancer stem cells; [3]): 78%
viability at 10 µM (cancer stem cells; Laryngeal cancer): 85%
viability at 20 µM (cancer stem cells; Laryngeal cancer): 79%
viability at 10 µM (cancer stem cells; Liver cancer): 82%
viability at 20 µM (cancer stem cells; Liver cancer): 73%
viability at 10 µM (cancer stem cells; Lung adenocarcinoma): 85%
viability at 20 µM (cancer stem cells; Lung adenocarcinoma): 77%
viability at 10 µM (cancer stem cells; Lung cancer): 85%
viability at 20 µM (cancer stem cells; Lung cancer): 79%
viability at 10 µM (cancer stem cells; Malignant melanoma): 82%
viability at 20 µM (cancer stem cells; Malignant melanoma): 76%
viability at 10 µM (cancer stem cells; Nasopharynx cancer): 82%
viability at 20 µM (cancer stem cells; Nasopharynx cancer): 74%
viability at 10 µM (cancer stem cells; Ovarian cancer): 84%
viability at 20 µM (cancer stem cells; Ovarian cancer): 78%
viability at 10 µM (cancer stem cells; Pancreatic cancer): 84%
viability at 20 µM (cancer stem cells; Pancreatic cancer): 78%
viability at 10 µM (cancer stem cells; Prostate cancer): 85%
viability at 20 µM (cancer stem cells; Prostate cancer): 77%
viability at 10 µM (cancer stem cells; Retinoblastoma): 81%
viability at 20 µM (cancer stem cells; Retinoblastoma): 75%
viability at 10 µM (cancer stem cells; Skin cancer): 84%
viability at 20 µM (cancer stem cells; Skin cancer): 78%
viability at 10 µM (cancer cells; AML): 88%
viability at 20 µM (cancer cells; AML): 82%
viability at 10 µM (cancer cells; Brain glioma): 93%
viability at 20 µM (cancer cells; Brain glioma): 86%
viability at 10 µM (cancer cells; Brain tumor): 87%
viability at 20 µM (cancer cells; Brain tumor): 83%
viability at 10 µM (cancer cells; Breast cancer): 91%
viability at 20 µM (cancer cells; Breast cancer): 87%
viability at 10 µM (cancer cells; CLL): 91%
viability at 20 µM (cancer cells; CLL): 87%
viability at 10 µM (cancer cells; CML): 92%
viability at 20 µM (cancer cells; CML): 89%
viability at 10 µM (cancer cells; Children hepatoblastoma): 88%
viability at 20 µM (cancer cells; Children hepatoblastoma): 85%
viability at 10 µM (cancer cells; Colon adenocarcinoma): 91%
viability at 20 µM (cancer cells; Colon adenocarcinoma): 89%
viability at 10 µM (cancer cells; Colorectal cancer): 88%
viability at 20 µM (cancer cells; Colorectal cancer): 81%
viability at 10 µM (cancer cells; Gastric cancer): 88%
viability at 20 µM (cancer cells; Gastric cancer): 89%
viability at 10 µM (cancer cells; Gastrointestinal tumor): 89%
viability at 20 µM (cancer cells; Gastrointestinal tumor): 81%
viability at 10 µM (cancer cells; Glioma): 94%
viability at 20 µM (cancer cells; Glioma): 87%
viability at 10 µM (cancer cells; [3]): 93%
viability at 20 µM (cancer cells; [3]): 92%
viability at 10 µM (cancer cells; Laryngeal cancer): 93%
viability at 20 µM (cancer cells; Laryngeal cancer): 86%
viability at 10 µM (cancer cells; Liver cancer): 91%
viability at 20 µM (cancer cells; Liver cancer): 87%
viability at 10 µM (cancer cells; Lung adenocarcinoma): 92%
viability at 20 µM (cancer cells; Lung adenocarcinoma): 89%
viability at 10 µM (cancer cells; Lung cancer): 93%
viability at 20 µM (cancer cells; Lung cancer): 86%
viability at 10 µM (cancer cells; Malignant melanoma): 89%
viability at 20 µM (cancer cells; Malignant melanoma): 86%
viability at 10 µM (cancer cells; Nasopharynx cancer): 88%
viability at 20 µM (cancer cells; Nasopharynx cancer): 85%
viability at 10 µM (cancer cells; Ovarian cancer): 91%
viability at 20 µM (cancer cells; Ovarian cancer): 88%
viability at 10 µM (cancer cells; Pancreatic cancer): 91%
viability at 20 µM (cancer cells; Pancreatic cancer): 88%
viability at 10 µM (cancer cells; Prostate cancer): 92%
viability at 20 µM (cancer cells; Prostate cancer): 89%
viability at 10 µM (cancer cells; Retinoblastoma): 87%
viability at 20 µM (cancer cells; Retinoblastoma): 83%
viability at 10 µM (cancer cells; Skin cancer): 91%
viability at 20 µM (cancer cells; Skin cancer): 88%
viability at 10 µM (normal cells; [4]): 95%
viability at 10 µM (normal cells; [5]): 93%
viability at 20 µM (normal cells; [4]): 94%
viability at 20 µM (normal cells; [5]): 92%
